How the values were obtained:
downy bromegrass = experiment: Test C postemergence herbicide test; format: in vivo, Bromus tectorum
Procedure, shortened: (§1)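 Plants were grown to the 1- to 4-leaf stage (2–18 cm) and then treated postemergence, or grown to the 2-leaf stage for the flooded paddy test. They were held in a greenhouse for 12 to 14 days and then scored by eye against controls, where 0 is no effect and 100 is complete control.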

pigweed = experiment: Test B pre-/postemergence herbicide test; format: in vivo, Amaranthus retroflexus
Procedure, shortened: (§2)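 Evaluation is visual, comparing treated with control plants on a scale where 0 means no effect and 100 means full control. Treatments were preemergence, or postemergence on seedlings 2–18 cm tall, and held 13–15 days in the greenhouse.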

canarygrass = experiment: Test C postemergence herbicide test; format: in vivo, Phalaris minor
Procedure, shortened: as §1

wheat [1] = experiment: Test C postemergence herbicide test; format: in vivo, Triticum aestivum
Procedure, shortened: as §1

Italian ryegrass = experiment: Test C postemergence herbicide test; format: in vivo, Lolium multiflorum
Procedure, shortened: as §1

winter barley = experiment: Test C postemergence herbicide test; format: in vivo, Hordeum vulgare
Procedure, shortened: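 Scoring by eye, 12–14 days post-treatment, greenhouse-held plants vs. controls; 0 no effect, 100 complete control. Sprayed at 1–4 leaves (2–18 cm); paddy barnyardgrass at 2 leaves, flooded.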

windgrass = experiment: Test C postemergence herbicide test; format: in vivo, Apera spica-venti
Procedure, shortened: as §1

giant foxtail = experiment: Test B pre-/postemergence herbicide test; format: in vivo, Setaria faberi
Procedure, shortened: as §2

wheat [2] = experiment: Test B postemergence herbicide test; format: in vivo, Triticum aestivum; design: key to Wheat plant response rating: 0 = no effect, 100 = complete control
Procedure, shortened: (§3)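 Greenhouse test; postemergence application to plants at 1–4 leaves (2–18 cm); paddy species at 2 leaves; evaluated visually vs controls at 13–15 days; scale 0–100 (100 = complete control).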

rice = experiment: Test B flooded paddy test; format: in vivo, Oryza sativa; details: 1000 g ai/ha, scale 0 to 100 (0 no effect, 100 complete control)
Procedure, shortened: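 Each value is a visual 0–100 response rating taken against controls 13 to 15 days after treatment in the greenhouse. Plants received formulated chemical postemergence at the 1- to 4-leaf stage or, in flooded paddy, at the 2-leaf stage.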

barnyardgrass [3] = experiment: Test B flooded paddy test; format: in vivo, Echinochloa crus-galli; details: 1000 g ai/ha, scale 0 to 100 (0 no effect, 100 complete control)
Procedure, shortened: (§4)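 Scale 0–100: zero equals no visible effect, 100 complete control, judged by eye relative to controls. Timing: 13 to 15 days in greenhouse post-treatment. Growth stage at spraying: two leaves (paddy) or one to four leaves, 2–18 cm (postemergence).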

blackgrass [4] = experiment: Test C postemergence herbicide test; format: in vivo, Alopecurus myosuroides
Procedure, shortened: as §1

blackgrass [5] = experiment: Test B postemergence herbicide test; format: in vivo, Alopecurus myosuroides
Procedure, shortened: as §4

lambsquarters = experiment: Test B pre-/postemergence herbicide test; format: in vivo, Chenopodium album
Procedure, shortened: as §2

barnyardgrass [6] = experiment: Test B pre-/postemergence herbicide test; format: in vivo, Echinochloa crus-galli; details: for Barnyardgrass plant response rating: Postemergence, scale 0 (no effect) to 100 (complete control)
Procedure, shortened: (§5)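 Formulation: non-phytotoxic solvent mix with surfactant. Timing: preemergence on seed and postemergence on 2–18 cm plants, applied concurrently. Readout after 13–15 d greenhouse: visual 0–100 control rating against controls.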

green foxtail = experiment: Test C postemergence herbicide test; format: in vivo, Setaria viridis
Procedure, shortened: as §1

morningglory = experiment: Test B pre-/postemergence herbicide test; format: in vivo, Ipomoea coccinea
Procedure, shortened: as §5

corn = experiment: Test B pre-/postemergence herbicide test; format: in vivo, Zea mays
Procedure, shortened: as §2

ducksalad = experiment: Test B flooded paddy test; format: in vivo, Heteranthera limosa; details: 1000 g ai/ha, scale 0 to 100 (0 no effect, 100 complete control)
Procedure, shortened: as §4

large crabgrass = experiment: Test B pre-/postemergence herbicide test; format: in vivo, Digitaria sanguinalis
Procedure, shortened: as §2

cocklebur = experiment: Test B pre-/postemergence herbicide test; format: in vivo, Xanthium strumarium
Procedure, shortened: as §5

wild oat [7] = experiment: Test C postemergence herbicide test; format: in vivo, Avenafatua
Procedure, shortened: as §1

[8] = system: small flower umbrella sedge; experiment: Test B flooded paddy test; format: in vivo, Cyperus difformis; details: 1000 g ai/ha, scale 0 to 100 (0 no effect, 100 complete control)
Procedure, shortened: as §4

velvetleaf = experiment: Test B pre-/postemergence herbicide test; format: in vivo, Abutilon theophrasti
Procedure, shortened: as §2

Surinam grass = experiment: Test B pre-/postemergence herbicide test; format: in vivo, Urochloa decumbens
Procedure, shortened: as §2

wild oat [9] = experiment: Test B postemergence herbicide test; format: in vivo, Avena fatua
Procedure, shortened: as §3

[10] = Postemergence, 250 g ai/ha, scale 0 to 100, 0 no effect, 100 complete control
[11] = Postemergence, 500 g ai/ha, scale 0 to 100, 0 no effect, 100 complete control
[12] = postemergence, 125 g ai/ha, scale 0 to 100
[13] = postemergence, 62 g ai/ha, scale 0 to 100
[14] = 125 g ai/ha, 0 is no effect, 100 is complete control, preemergence
[15] = Postemergence, 500 g ai/ha, scale 0 (no effect) to 100 (complete control)
[16] = Postemergence, 500 g ai/ha, scale 0 to 100

## CN(C)C(=O)c1cccc(NC(=O)c2nn(C(C)(C)C)nc2Br)c1 [Compound 429]
Downy bromegrass; [10]
  Plant response rating, Bromegrass, Downy: 45
Downy bromegrass; [11]
  Plant response rating, Bromegrass, Downy: 55
Downy bromegrass; [12]
  Plant response rating, Bromegrass, Downy: 40
Downy bromegrass; [13]
  Plant response rating, Bromegrass, Downy: 40
pigweed; [14]
  Plant response rating (0 to 100 scale), Pigweed: 100
pigweed; [15]
  Pigweed plant response rating: 50
pigweed; [12]
  Pigweed plant response rating: 40
canarygrass; [10]
  Plant response rating, Canarygrass: 55
canarygrass; [11]
  Plant response rating, Canarygrass: 60
canarygrass; [12]
  Plant response rating, Canarygrass: 40
canarygrass; [13]
  Plant response rating, Canarygrass: 20
Wheat [1]; [11]
  Plant response rating, Wheat: 45
Wheat [1]; [12]
  Plant response rating, Wheat: 35
Wheat [1]; [13]
  Plant response rating, Wheat: 25
Italian ryegrass; [11]
  Plant response rating, Ryegrass, Italian: 60
Italian ryegrass; [12]
  Plant response rating, Ryegrass, Italian: 50
Italian ryegrass; [13]
  Plant response rating, Ryegrass, Italian: 45
Winter barley; [16]
  Barley, Winter plant response rating: 40
Winter barley; Postemergence, 125 g ai/ha, scale 0 to 100, 0 no effect, 100 complete control
  Plant response rating, Barley, Winter: 35
Winter barley; [10]
  Plant response rating, Barley, Winter: 35
Winter barley; postemergence, 62 g ai/ha, scale 0 to 100 (0 no effect, 100 complete control)
  Plant response rating, Barley, Winter: 25
windgrass; [11]
  Plant response rating, Windgrass: 60
windgrass; [12]
  Plant response rating, Windgrass: 40
windgrass; [13]
  Plant response rating, Windgrass: 40
Giant foxtail; [14]
  Plant response rating (0 to 100 scale), Foxtail, Giant: 90
Giant foxtail; [15]
  Foxtail, Giant plant response rating: 40
Giant foxtail; [12]
  Foxtail, Giant plant response rating: 30
Wheat [2]; 500 g ai/ha, scale 0 to 100, 0 no effect, 100 complete control, preemergence
  Wheat plant response rating: 100
Wheat [2]; [15]
  Wheat plant response rating: 40
Wheat [2]; [12]
  Wheat plant response rating: 20
rice
  Rice plant response rating: 70
Barnyardgrass [3]
  Barnyardgrass plant response rating: 100
Blackgrass [4]; [16]
  Blackgrass plant response rating: 65
Blackgrass [4]; [10]
  Plant response rating, Blackgrass: 60
Blackgrass [4]; [12]
  Plant response rating, Blackgrass: 60
Blackgrass [4]; [13]
  Plant response rating, Blackgrass: 45
Blackgrass [5]; [15]
  Blackgrass plant response rating: 50
Blackgrass [5]; [12]
  Blackgrass plant response rating: 20
lambsquarters; [14]
  Plant response rating (0 to 100 scale), Lambsquarters: 100
lambsquarters; [15]
  Lambsquarters plant response rating: 70
lambsquarters; [12]
  Lambsquarters plant response rating: 50
Barnyardgrass [6]; [14]
  Plant response rating (0 to 100 scale), Barnyardgrass: 100
Barnyardgrass [6]; 125 g ai/ha
  Barnyardgrass plant response rating: 30
Barnyardgrass [6]; 500 g ai/ha
  Barnyardgrass plant response rating: 60
Green foxtail; [10]
  Plant response rating, Foxtail, Green: 55
Green foxtail; [11]
  Plant response rating, Foxtail, Green: 65
Green foxtail; [12]
  Plant response rating, Foxtail, Green: 50
Green foxtail; [13]
  Plant response rating, Foxtail, Green: 40
morningglory; [14]
  Plant response rating (0 to 100 scale), Morningglory: 90
morningglory; [15]
  Morningglory plant response rating: 80
morningglory; [12]
  Morningglory plant response rating: 70
corn; [14]
  Plant response rating (0 to 100 scale), Corn: 40
corn; [15]
  Corn plant response rating: 40
corn; [12]
  Corn plant response rating: 30
ducksalad
  Ducksalad plant response rating: 60
Large crabgrass; [14]
  Plant response rating (0 to 100 scale), Crabgrass, Large: 100
Large crabgrass; [15]
  Crabgrass, Large plant response rating: 40
Large crabgrass; [12]
  Crabgrass, Large plant response rating: 30
cocklebur; [14]
  Plant response rating (0 to 100 scale), Cocklebur: 60
cocklebur; [15]
  Cocklebur plant response rating: 70
cocklebur; [12]
  Cocklebur plant response rating: 60
Wild oat [7]; [11]
  Plant response rating, Oat, Wild: 65
Wild oat [7]; [12]
  Plant response rating, Oat, Wild: 60
Wild oat [7]; [13]
  Plant response rating, Oat, Wild: 45
[8]
  Sedge, Umbrella plant response rating: 90
velvetleaf; [14]
  Plant response rating (0 to 100 scale), Velvetleaf: 80
velvetleaf; [15]
  Velvetleaf plant response rating: 60
velvetleaf; [12]
  Velvetleaf plant response rating: 50
Surinam grass; [14]
  Plant response rating (0 to 100 scale), Surinam Grass: 70
Surinam grass; [15]
  Surinam Grass plant response rating: 30
Surinam grass; [12]
  Surinam Grass plant response rating: 20
Wild oat [9]; [15]
  Oat, Wild plant response rating: 40
Wild oat [9]; [12]
  Oat, Wild plant response rating: 30

From patent US20060069132A1, “Azolecarboxamide herbicides” (priority 2004, published 2006)
